{"source": "ChEMBL document CHEMBL2331127", "about": "“3D-QSAR and docking studies of pentacycloundecylamines at the sigma-1 (σ1) receptor” (Bioorg Med Chem Lett, 2013)", "data": [{"target": "Sigma non-opioid intracellular receptor 1 (Rattus norvegicus, UniProt Q9R0C9)", "sequence (Q9R0C9 whole entry)": "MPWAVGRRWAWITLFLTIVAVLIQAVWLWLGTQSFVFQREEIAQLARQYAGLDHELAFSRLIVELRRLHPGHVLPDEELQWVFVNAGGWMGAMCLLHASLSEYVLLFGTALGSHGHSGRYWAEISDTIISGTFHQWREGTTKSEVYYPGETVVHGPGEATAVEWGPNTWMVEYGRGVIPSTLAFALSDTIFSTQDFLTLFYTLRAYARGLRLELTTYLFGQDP", "experiment": "Displacement of [3H](+)-pentazocine from sigma-1 receptor in rat liver homogenate", "assay_type": "tissue-based", "units": {"IC50": "nM"}, "values": [{"smiles": "c1ccc(CCNC23OC4C5C6CC(C7C6C4C72)C53)cc1", "note": "(stereo not drawn)", "IC50": 1540}, {"smiles": "c1ccc(CNC23OC4C5C6CC(C7C6C4C72)C53)cc1", "note": "(stereo not drawn)", "IC50": 1780}]}, {"target": "Sigma non-opioid intracellular receptor 1 (Cavia porcellus, UniProt Q60492)", "sequence (Q60492 whole entry)": "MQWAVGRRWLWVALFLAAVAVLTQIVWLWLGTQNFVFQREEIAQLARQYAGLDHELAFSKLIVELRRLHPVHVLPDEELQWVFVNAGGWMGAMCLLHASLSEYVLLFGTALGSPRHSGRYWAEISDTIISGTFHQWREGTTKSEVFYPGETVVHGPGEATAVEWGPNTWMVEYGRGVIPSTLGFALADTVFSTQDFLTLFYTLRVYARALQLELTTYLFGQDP", "experiment": "Displacement of [3H](+)-pentazocine from sigma-1 receptor in guinea pig brain", "units": {"Ki": "nM"}, "values": [{"smiles": "OC12C3C4CC5C6C4C1C6C(C53)N2Cc1cccc(F)c1", "note": "(stereo not drawn)", "Ki": 151}, {"smiles": "OC12C3C4CC5C6C4C1C6C(C53)N2CCCc1ccccc1", "note": "(stereo not drawn)", "Ki": 20.9}, {"smiles": "OC12C3C4CC5C6C4C1C6C(C53)N2Cc1ccccc1F", "note": "(stereo not drawn)", "Ki": 182}, {"smiles": "OC12C3C4CC5C6C4C1C6C(C53)N2Cc1cccc(Cl)c1", "note": "(stereo not drawn)", "Ki": 186}, {"smiles": "OC12C3C4CC5C6C4C1C6C(C53)N2Cc1ccc(I)cc1", "note": "(stereo not drawn)", "Ki": 81.3}, {"smiles": "OC12C3C4CC5C6C4C1C6C(C53)N2Cc1ccc(F)c(F)c1", "note": "(stereo not drawn)", "Ki": 200}, {"smiles": "OC12C3C4CC5C6C4C1C6C(C53)N2CCc1ccccc1", "note": "(stereo not drawn)", "Ki": 20}, {"smiles": "OC12C3C4CC5C6C4C1C6C(C53)N2CCc1cccc(F)c1", "note": "(stereo not drawn)", "Ki": 10}, {"smiles": "OC12C3C4CC5C6C4C1C6C(C53)N2CCc1ccc(Cl)c(Cl)c1", "note": "(stereo not drawn)", "Ki": 10}, {"smiles": "OC12C3C4CC5C6C4C1C6C(C53)N2Cc1ccccc1", "note": "(stereo not drawn)", "Ki": 102}, {"smiles": "OC12C3C4CC5C6C4C1C6C(C53)N2CCc1cccc(Cl)c1", "note": "(stereo not drawn)", "Ki": 20.9}, {"smiles": "OC12C3C4CC5C6C4C1C6C(C53)N2Cc1cccc(C(F)(F)F)c1", "note": "(stereo not drawn)", "Ki": 269}, {"smiles": "OC12C3C4CC5C6C4C1C6C(C53)N2Cc1ccc(F)cc1", "note": "(stereo not drawn)", "Ki": 107}, {"smiles": "OC12C3C4CC5C6C4C1C6C(C53)N2Cc1cccc(Br)c1", "note": "(stereo not drawn)", "Ki": 209}, {"smiles": "OC12C3C4CC5C6C4C1C6C(C53)N2Cc1cccc(I)c1", "note": "(stereo not drawn)", "Ki": 170}, {"smiles": "Cc1cccc(CN2C3C4C5CC6C7C5C3C7C2(O)C64)c1", "note": "(stereo not drawn)", "Ki": 97.7}, {"smiles": "OC12C3C4CC5C6C4C1C6C(C53)N2CCCCc1ccccc1", "note": "(stereo not drawn)", "Ki": 8.91}, {"smiles": "O=[N+]([O-])c1cccc(CN2C3C4C5CC6C7C5C3C7C2(O)C64)c1", "note": "(stereo not drawn)", "Ki": 1100}, {"smiles": "COc1ccc(CN2C3C4C5CC6C7C5C3C7C2(O)C64)cc1", "note": "(stereo not drawn)", "Ki": 102}, {"smiles": "OC12C3C4CC5C6C4C1C6C(C53)N2CCc1ccc(Br)cc1", "note": "(stereo not drawn)", "Ki": 10}, {"smiles": "OC12C3C4CC5C6C4C1C6C(C53)N2Cc1ccc(Br)cc1", "note": "(stereo not drawn)", "Ki": 85.1}]}]}
